Measured values reported in paper PMC9913425, “Pentacyclic Triterpenoids-Based Ionic Compounds: Synthesis, Study of Structure–Antitumor Activity Relationship, Effects on Mitochondria and Activation of Signaling Pathways of Proliferation, Genome Reparation and Early Apoptosis” (Cancers, 2023).

Key:
Assay in all cases: In vitro cytotoxicity, IC50 by flow cytometry (Guava ViaCount)
HEK293 = assay type: cell-based; conditions: conditionally normal
Method: (§1) Human cancer cell line HeLa, HL60, A2780 was obtained from the HPA Culture Collections (Salisbury, UK). Cells (Jurkat, K562, U937, Hek293, Fibroblasts) were purchased from Russian Cell Culture Collection (Institute of Cytology of the Russian Academy of Sciences, […], Russia) and cultured according to standard protocols and sterile technique. […] Cells were maintained in RPMI 1640 (Jurkat, K562, U937, HL60) (Gibco, Billings, MT, USA) supplemented with […], 10% FBS (Sigma) and 100 units/mL penicillin–streptomycin (Sigma). All types of cells were grown in an atmosphere of 5% CO2 at 37 °C. The cells were subcultured at 2–3 days intervals. Cells were then seeded in 24-well plates at 5 × 10^4 cells per well and incubated overnight. Jurkat, K562, U937, HL60 cells were subcultured at 2-day intervals with a seeding density of 1 × 10^5 cells per 24-well plates in RPMI with 10% FBS.
(§2) The antitumor activity of the synthesized ionic compounds was initially assessed in vitro on Jurkat, K562, U937, HL60, HEK293, A2780 cell lines, including the determination of IC50 by flow cytometry involving Guava ViaCount (Millipore) reagent kits.

U937 = assay type: cell-based
Method: as §1, §2

Jurkat = assay type: cell-based; conditions: Jurkat cells
Method: as §1, §2

K562 = assay type: cell-based
Method: as §1, §2

HL60 = assay type: cell-based, human
Method: as §1, §2

A2780 = assay type: cell-based, human
Method: as §1, §2

Row | Compound | IC50 (HEK293; Homo sapiens, HEK293, HEK293 cells) [nM] | IC50 (U937; Homo sapiens, U-937, U937 cells) [nM] | IC50 (Jurkat; Homo sapiens, Jurkat) [nM] | IC50 (K562; Homo sapiens, K562, K562 cells) [nM] | IC50 (HL60; Homo sapiens, HL-60, HL60 cells) [nM] | IC50 (A2780; Homo sapiens, A2780, A2780 cells) [nM] | IC50 (HEK293; HEK293 cells) [nM] | IC50 (U937; U937 cells) [nM] | IC50 (Jurkat) [nM] | IC50 (K562; K562 cells) [nM] | IC50 (HL60; HL60 cells) [nM] | IC50 (A2780; A2780 cells) [nM]
1 | C[n+]1ccn(CCCCOC(=O)[C@]23CCC(C)(C)CC2C2=CCC4[C@@]5(C)CC[C@H](O)C(C)(C)C5CC[C@@]4(C)[C@]2(C)CC3)c1 (stereo partly drawn) [9b, 1-(4-{[(3β)-3-Hydroxyolean-12-en-28-oyl]oxy}butyl)-3-methylimidazolium bromide] | 449 ± 41 | 135 ± 7 | 29 ± 2 | 149 ± 7 | 46 ± 4 | 257 ± 24 | – | – | – | – | – | –
2 | C[n+]1ccn(CCCCCCOC(=O)[C@]23CCC(C)(C)CC2C2=CCC4[C@@]5(C)CC[C@H](O)C(C)(C)C5CC[C@@]4(C)[C@]2(C)CC3)c1 (stereo partly drawn) [9c, 1-(6-{[(3β)-3-Hydroxyolean-12-en-28-oyl]oxy}hexyl)-3-methylimidazolium bromide] | – | – | – | – | – | – | 318 ± 29 | 119 ± 5 | 26 ± 1 | 133 ± 6 | 31 ± 3 | 234 ± 21
3 | C[n+]1ccn(CCCCCCOC(=O)[C@]23CCC(C)(C)CC2C2=CCC4[C@@]5(C)CC[C@H](O)C(C)(C)C5CC[C@@]4(C)[C@]2(C)CC3)c1 (stereo partly drawn) [13a, 1-(6-{[(3β)-3-Hydroxyolean-12-en-28-oyl]oxy}hexyl)-3-methylimidazolium Tetrafluoroborate] | – | – | – | – | – | – | 24 ± 2 | 5 ± 1 | 3 ± 1 | 6 ± 1 | 2 ± 1 | 18 ± 2
4 | 1-Hexyl-3-methylimidazolium (3β)-3-hydroxyours-12-en-28-oylate [16c] | – | – | – | – | – | – | 81 ± 8 | 14 ± 1 | 7 ± 1 | 16 ± 1 | 7 ± 1 | 39 ± 4
5 | CCn1cc[n+](C)c1.C[C@H]1[C@H](C)CC[C@]2(C(=O)[O-])CC[C@]3(C)C(=CC[C@@H]4[C@@]5(C)CC[C@H](O)C(C)(C)[C@@H]5CC[C@]43C)[C@H]12 [16a, 1-Ethyl-3-methylimidazolium (3β)-3-hydroxyours-12-en-28-oylate] | – | – | – | – | – | – | 178 ± 18 | 34 ± 2 | 33 ± 2 | 36 ± 2 | 18 ± 2 | 88 ± 7
6 | 1-Hexyl-3-methylimidazolium (3β)-3-hydroxyolean-12-en-28-oylate [15d] | – | – | – | – | – | – | 581 ± 47 | 143 ± 7 | 107 ± 6 | 159 ± 8 | 69 ± 7 | 231 ± 22
7 | 1-Butyl-3-methylimidazolium (3β)-3-hydroxyours-12-en-28-oylate [16b] | – | – | – | – | – | – | 935 ± 94 | 299 ± 14 | 97 ± 6 | 336 ± 16 | 89 ± 8 | 396 ± 35
8 | CC1(C)CCC2(C(=O)[O-])CCC3(C)C(=CCC4C5(C)CCC(O)C(C)(C)C5CCC43C)C2C1.CC[n+]1ccn(C)c1 (stereo not drawn) [15a, 1-Ethyl-3-methylimidazolium (3β)-3-hydroxyolean-12-en-28-oylate] | – | – | – | – | – | – | 359 ± 31 | 79 ± 5 | 47 ± 3 | 88 ± 5 | 34 ± 3 | 162 ± 12
9 | 1-Butyl-3-methylimidazolium (3β)-3-hydroxyolean-12-en-28-oylate [15b] | – | – | – | – | – | – | 167 ± 16 | 38 ± 2 | 19 ± 1 | 41 ± 2 | 17 ± 2 | 79 ± 7
10 | 1-Hexyl-3-methylimidazolium (3β)-3-hydroxyolean-12-en-28-oylate [15c] | – | – | – | – | – | – | 392 ± 38 | 69 ± 3 | 43 ± 2 | 80 ± 4 | 39 ± 4 | 157 ± 18
11 | 1-Benzyl-3-methylimidazolium (3β)-3-hydroxyours-12-en-28-oylate [16d] | – | – | – | – | – | – | 56 ± 4 | 11 ± 1 | 11 ± 1 | 12 ± 1 | 5 ± 1 | 27 ± 2
